Experimental data reported in patent publication US20210369675A1, “ANTIMICROBIAL DRUG METHODS OF USE & THERAPEUTIC COMPOSITIONS” (priority 2017, published 2021).
Entries after “also recorded” stand apart in the source; their conditions may differ.

Experiments:
[1] = tested on: Burkholderia pseudomallei; assay type: cell-based
[2] = cited from earlier work; for elimination half-life (T1/2): after a single administration of rac-ornidazole in a formulation; for AUC0-∞: after a single administration
[3] = current 300 mg capsule formulation, per product label; cited from earlier work
[4] = tested on: Brucella melitensis; conditions: cited from earlier work
[5] = tested on: Burkholderia pseudomallei; conditions: cited from earlier work

Cc1ncc([N+](=O)[O-])n1CC(O)CCl (racemic) [(rac)-ornidazole, 1-chloro-3-(2-methyl-5-nitro-1H-imidazol-1-yl)propan-2-ol]
inhibition of B. pseudomallei grown under anaerobic conditions [1]: inhibition; also recorded: effectively inhibited

Cc1ncc([N+](=O)[O-])n1C[C@@H](O)CCl [(R)-ornidazole]
elimination half-life (T1/2) [2]: similar | AUC0-∞ [2]: similar

Cc1ncc([N+](=O)[O-])n1C[C@H](O)CCl [(S)-ornidazole]
elimination half-life (T1/2) [2]: similar | AUC0-∞ [2]: similar

C[C@H](CCC(=O)O)[C@H]1CC[C@H]2[C@@H]3[C@@H](O)C[C@@H]4C[C@H](O)CC[C@]4(C)[C@H]3CC[C@]12C [Ursodiol, ursodeoxycholic acid]
fraction of drug absorbed in the small intestines (small bowel) [3]: 90% | fraction of drug reaching the colon [3]: less than 10%

CC(C)(O/N=C(\C(=O)N[C@@H]1C(=O)N2C(C(=O)[O-])=C(C[n+]3ccccc3)CS[C@H]12)c1csc(N)n1)C(=O)O [ceftazidime]
effectiveness of conventional antibiotics against B. melitensis [4]: not effective | effectiveness of conventional antibiotics against B. pseudomallei [5]: not effective

O=C(N[C@H](CO)[C@H](O)c1ccc([N+](=O)[O-])cc1)C(Cl)Cl [chloramphenicol]
effectiveness of conventional antibiotics against B. melitensis [4]: not effective | effectiveness of conventional antibiotics against B. pseudomallei [5]: not effective

trimethoprim-sulfamethoxazole
effectiveness of conventional antibiotics against B. melitensis [4]: not effective | effectiveness of conventional antibiotics against B. pseudomallei [5]: not effective
